# Data taken from patent publication US20230286919A1, “ISOQUINOLINE DERIVATIVES FOR USE IN THERAPY” (Vestlandets Innovasjonsselskap AS, priority 2020, published 2023).
# Read-outs that look alike come from different tables or passages of the source.
# Key:
# [1] = molecular target: JAK3 (Homo sapiens, UniProt P52333); assay: SelectScreen biochemical kinase profiling, JAK3; details: JAK3, cell free; read-out: Enzyme inhibitory activity IC50
# Procedure: (§1) The in vitro kinase inhibitory assays in the presence of compounds 323-1 and 323-2 were carried out according to the Z′-LYTE™ Screening and LanthaScreen Eu Kinase Binding Assays Experimental Procedures in Invitrogen (ThermoFisher Scientific, Waltham, Mass., USA). For the Z′-LYTE™ Screening profiling for FRAP1 (mTOR), JAK3, and LTK (TYK1), a mixture containing the test compounds in 100% DMSO, 2.4 μL Kinase buffer (50 mM HEPES pH 7.5, 0.01% BRIJ-35, 10 mM MgCl2, 1 mM EGTA), 5 μL 2× Peptide/Kinase Mixture, 2.5 μL 4×ATP Solution were added into black 384-well low volume NBS and bar-coded corning plate (Corning Cat. #4514) and shake the plate for 30 seconds. After incubation at RT for 60 min, 5 μL Development Reagent Solution was added into plate and shake the plate for 30 seconds, followed by Development Reaction incubation at RT for 60 min. Read on fluorescence plate reader and analyze the data. […]
# (§2) Inhibition by compounds 323-1 and 323-2 of MAP2K4 (MEK4) and TGFBR1 (ALK5) was determined by […]. Inhibition by compounds 323-1 and 323-2 of FRAP1 (mTOR), JAK3, and LTK (TYK1) was determined by […] using the Adapta Universal Kinase Assay (Life Technologies). […]
# [2] = molecular target: LTK (TYK1) (Homo sapiens, UniProt P29376); assay: SelectScreen biochemical kinase profiling, LTK (TYK1); details: cell free, read-out: Enzyme inhibitory activity IC50
# Procedure: as §1, §2
# [3] = molecular target: FRAP1 (mTOR) (Homo sapiens, UniProt P42345); assay: SelectScreen biochemical kinase profiling, FRAP1 (mTOR); details: cell free, read-out: Enzyme inhibitory activity IC50
# Procedure: as §1, §2
# [4] = molecular target: MAP2K4 (MEK4) (Homo sapiens, UniProt P45985); assay: SelectScreen kinase profiling, MAP2K4 (MEK4); format: binding; details: cell free, read-out: Enzyme inhibitory activity IC50
# MAP2K4 (MEK4), sequence (P45985 whole entry): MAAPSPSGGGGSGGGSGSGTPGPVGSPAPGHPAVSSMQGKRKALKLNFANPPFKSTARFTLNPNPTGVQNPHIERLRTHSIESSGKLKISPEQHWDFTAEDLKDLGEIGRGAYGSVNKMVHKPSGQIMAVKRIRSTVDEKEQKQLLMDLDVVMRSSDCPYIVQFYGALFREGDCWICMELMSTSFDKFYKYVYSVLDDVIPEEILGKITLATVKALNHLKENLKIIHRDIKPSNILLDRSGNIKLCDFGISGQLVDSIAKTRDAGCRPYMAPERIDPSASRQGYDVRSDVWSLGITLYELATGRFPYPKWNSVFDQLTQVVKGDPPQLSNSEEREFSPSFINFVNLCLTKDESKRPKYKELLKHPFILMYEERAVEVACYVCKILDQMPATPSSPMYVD
# Procedure: as §1, §2
# [5] = molecular target: AKT1 (PKB alpha) (Homo sapiens, UniProt P31749); assay: SelectScreen kinase profiling, AKT1; format: biochemical; details: read-out: Enzyme inhibitory activity IC50
# AKT1 (PKB alpha), sequence (P31749 whole entry): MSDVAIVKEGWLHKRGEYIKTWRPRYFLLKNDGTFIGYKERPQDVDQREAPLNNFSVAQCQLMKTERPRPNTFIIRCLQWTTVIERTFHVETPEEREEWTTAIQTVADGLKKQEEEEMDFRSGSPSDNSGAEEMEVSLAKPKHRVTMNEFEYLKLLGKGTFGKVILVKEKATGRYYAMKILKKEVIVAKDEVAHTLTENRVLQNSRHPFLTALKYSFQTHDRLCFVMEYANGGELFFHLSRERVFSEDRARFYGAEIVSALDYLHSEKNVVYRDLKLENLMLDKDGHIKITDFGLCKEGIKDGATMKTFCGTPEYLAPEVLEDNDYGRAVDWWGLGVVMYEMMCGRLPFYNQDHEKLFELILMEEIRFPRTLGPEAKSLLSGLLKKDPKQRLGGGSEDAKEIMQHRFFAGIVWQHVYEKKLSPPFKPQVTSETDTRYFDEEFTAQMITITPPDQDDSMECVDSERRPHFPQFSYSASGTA
# [6] = molecular target: AKT2 (PKB beta) (Homo sapiens, UniProt P31751); assay: SelectScreen kinase profiling, AKT2; format: biochemical; details: read-out: Enzyme inhibitory activity IC50
# AKT2 (PKB beta), sequence (P31751 whole entry): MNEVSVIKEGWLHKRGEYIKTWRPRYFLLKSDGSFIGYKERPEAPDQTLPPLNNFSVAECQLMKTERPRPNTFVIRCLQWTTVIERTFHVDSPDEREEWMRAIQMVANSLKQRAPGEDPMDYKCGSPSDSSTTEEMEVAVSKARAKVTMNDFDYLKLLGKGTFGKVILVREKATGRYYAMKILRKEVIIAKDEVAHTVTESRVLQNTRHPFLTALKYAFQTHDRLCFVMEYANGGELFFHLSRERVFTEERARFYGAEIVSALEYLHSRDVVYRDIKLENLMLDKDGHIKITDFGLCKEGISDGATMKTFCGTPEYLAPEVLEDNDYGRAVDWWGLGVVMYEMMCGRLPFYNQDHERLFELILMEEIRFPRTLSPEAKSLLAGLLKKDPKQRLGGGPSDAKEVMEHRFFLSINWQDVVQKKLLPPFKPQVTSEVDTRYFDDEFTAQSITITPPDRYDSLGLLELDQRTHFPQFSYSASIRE
# [7] = molecular target: ERBB2 (HER2) (Homo sapiens, UniProt P04626); assay: SelectScreen kinase profiling, ERBB2; format: biochemical; details: read-out: Enzyme inhibitory activity IC50
# [8] = molecular target: FGFR4 (Homo sapiens, UniProt P22455); assay: SelectScreen kinase profiling, FGFR4; format: biochemical; details: read-out: Enzyme inhibitory activity IC50
# FGFR4, sequence (P22455 22-802): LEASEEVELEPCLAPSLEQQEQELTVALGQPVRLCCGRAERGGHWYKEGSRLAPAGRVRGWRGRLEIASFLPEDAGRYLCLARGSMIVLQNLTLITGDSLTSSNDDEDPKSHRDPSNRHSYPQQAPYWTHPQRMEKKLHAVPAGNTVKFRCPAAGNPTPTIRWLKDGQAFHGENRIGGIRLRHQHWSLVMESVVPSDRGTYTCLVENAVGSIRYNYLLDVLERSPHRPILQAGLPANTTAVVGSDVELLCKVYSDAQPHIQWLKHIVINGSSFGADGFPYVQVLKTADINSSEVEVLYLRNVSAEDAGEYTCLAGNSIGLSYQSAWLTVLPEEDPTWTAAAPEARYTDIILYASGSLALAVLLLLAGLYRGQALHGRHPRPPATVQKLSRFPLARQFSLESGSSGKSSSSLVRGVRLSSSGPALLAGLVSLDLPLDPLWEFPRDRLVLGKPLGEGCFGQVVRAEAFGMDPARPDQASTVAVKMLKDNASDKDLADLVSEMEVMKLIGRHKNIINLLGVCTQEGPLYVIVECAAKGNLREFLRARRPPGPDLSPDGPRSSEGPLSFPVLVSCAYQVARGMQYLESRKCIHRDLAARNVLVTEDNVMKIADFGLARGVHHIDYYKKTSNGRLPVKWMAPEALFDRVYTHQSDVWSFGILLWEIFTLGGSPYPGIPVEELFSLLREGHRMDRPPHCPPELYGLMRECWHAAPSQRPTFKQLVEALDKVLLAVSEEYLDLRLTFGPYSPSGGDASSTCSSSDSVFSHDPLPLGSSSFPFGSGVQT
# [9] = molecular target: FLT4 (VEGFR3) (Homo sapiens, UniProt P35916); assay: SelectScreen kinase profiling, FLT4; format: biochemical; details: read-out: Enzyme inhibitory activity IC50
# [10] = molecular target: JAK1 (Homo sapiens, UniProt P23458); assay: SelectScreen kinase profiling, JAK1; format: biochemical; details: read-out: Enzyme inhibitory activity IC50
# [11] = molecular target: JAK2 (Homo sapiens, UniProt O60674); assay: SelectScreen kinase profiling, JAK2; format: biochemical; details: read-out: Enzyme inhibitory activity IC50
# [12] = molecular target: LYN B (Homo sapiens, UniProt P07948); assay: SelectScreen kinase profiling, LYN B; format: biochemical; details: read-out: Enzyme inhibitory activity IC50
# LYN B, sequence (P07948 1-491 isoform P07948-2): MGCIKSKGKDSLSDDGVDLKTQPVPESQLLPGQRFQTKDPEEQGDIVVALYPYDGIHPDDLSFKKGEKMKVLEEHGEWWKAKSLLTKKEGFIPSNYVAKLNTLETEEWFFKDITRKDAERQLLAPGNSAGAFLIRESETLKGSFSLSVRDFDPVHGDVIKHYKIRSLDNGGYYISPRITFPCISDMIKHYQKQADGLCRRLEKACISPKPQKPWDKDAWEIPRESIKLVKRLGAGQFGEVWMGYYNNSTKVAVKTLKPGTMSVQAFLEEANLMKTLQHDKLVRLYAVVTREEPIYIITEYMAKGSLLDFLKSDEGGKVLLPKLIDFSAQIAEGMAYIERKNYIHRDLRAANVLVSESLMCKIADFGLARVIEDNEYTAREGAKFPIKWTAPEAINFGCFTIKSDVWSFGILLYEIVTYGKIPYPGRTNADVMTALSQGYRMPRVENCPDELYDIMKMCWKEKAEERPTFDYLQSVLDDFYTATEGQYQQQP
# [13] = molecular target: MAP2K6 (MKK6) (Homo sapiens, UniProt P52564); assay: SelectScreen kinase profiling, MAP2K6; format: biochemical; details: read-out: Enzyme inhibitory activity IC50
# [14] = molecular target: MAPK1 (ERK2) (Homo sapiens, UniProt P28482); assay: SelectScreen kinase profiling, MAPK1; format: biochemical; details: read-out: Enzyme inhibitory activity IC50
# [15] = molecular target: MAPK9 (JNK2) (Homo sapiens, UniProt P45984); assay: SelectScreen kinase profiling, MAPK9; format: biochemical; details: read-out: Enzyme inhibitory activity IC50
# MAPK9 (JNK2), sequence (P45984 whole entry): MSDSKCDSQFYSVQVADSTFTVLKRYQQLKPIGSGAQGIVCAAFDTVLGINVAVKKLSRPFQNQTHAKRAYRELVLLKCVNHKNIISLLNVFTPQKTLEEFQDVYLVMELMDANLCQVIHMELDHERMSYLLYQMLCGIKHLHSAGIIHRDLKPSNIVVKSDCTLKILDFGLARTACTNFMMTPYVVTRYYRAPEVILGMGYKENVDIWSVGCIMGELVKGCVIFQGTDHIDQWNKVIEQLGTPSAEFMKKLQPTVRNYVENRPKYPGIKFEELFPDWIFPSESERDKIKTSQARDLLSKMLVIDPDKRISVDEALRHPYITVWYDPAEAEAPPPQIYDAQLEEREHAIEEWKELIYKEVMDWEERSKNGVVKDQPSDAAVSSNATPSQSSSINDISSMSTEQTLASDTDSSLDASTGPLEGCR
# [16] = molecular target: MET (cMet) (Homo sapiens, UniProt P08581); assay: SelectScreen kinase profiling, MET; format: biochemical; details: read-out: Enzyme inhibitory activity IC50
# [17] = molecular target: PDGFRA (PDGFR alpha) (Homo sapiens, UniProt P16234); assay: SelectScreen kinase profiling, PDGFRA; format: biochemical; details: read-out: Enzyme inhibitory activity IC50
# [18] = molecular target: PDGFRB (PDGFR beta) (Homo sapiens, UniProt P09619); assay: SelectScreen kinase profiling, PDGFRB; format: biochemical; details: read-out: Enzyme inhibitory activity IC50
# [19] = molecular target: TYK2 (Homo sapiens, UniProt P29597); assay: SelectScreen kinase profiling, TYK2; format: biochemical; details: read-out: Enzyme inhibitory activity IC50
# TYK2, sequence (P29597 whole entry, the tested form may be a part): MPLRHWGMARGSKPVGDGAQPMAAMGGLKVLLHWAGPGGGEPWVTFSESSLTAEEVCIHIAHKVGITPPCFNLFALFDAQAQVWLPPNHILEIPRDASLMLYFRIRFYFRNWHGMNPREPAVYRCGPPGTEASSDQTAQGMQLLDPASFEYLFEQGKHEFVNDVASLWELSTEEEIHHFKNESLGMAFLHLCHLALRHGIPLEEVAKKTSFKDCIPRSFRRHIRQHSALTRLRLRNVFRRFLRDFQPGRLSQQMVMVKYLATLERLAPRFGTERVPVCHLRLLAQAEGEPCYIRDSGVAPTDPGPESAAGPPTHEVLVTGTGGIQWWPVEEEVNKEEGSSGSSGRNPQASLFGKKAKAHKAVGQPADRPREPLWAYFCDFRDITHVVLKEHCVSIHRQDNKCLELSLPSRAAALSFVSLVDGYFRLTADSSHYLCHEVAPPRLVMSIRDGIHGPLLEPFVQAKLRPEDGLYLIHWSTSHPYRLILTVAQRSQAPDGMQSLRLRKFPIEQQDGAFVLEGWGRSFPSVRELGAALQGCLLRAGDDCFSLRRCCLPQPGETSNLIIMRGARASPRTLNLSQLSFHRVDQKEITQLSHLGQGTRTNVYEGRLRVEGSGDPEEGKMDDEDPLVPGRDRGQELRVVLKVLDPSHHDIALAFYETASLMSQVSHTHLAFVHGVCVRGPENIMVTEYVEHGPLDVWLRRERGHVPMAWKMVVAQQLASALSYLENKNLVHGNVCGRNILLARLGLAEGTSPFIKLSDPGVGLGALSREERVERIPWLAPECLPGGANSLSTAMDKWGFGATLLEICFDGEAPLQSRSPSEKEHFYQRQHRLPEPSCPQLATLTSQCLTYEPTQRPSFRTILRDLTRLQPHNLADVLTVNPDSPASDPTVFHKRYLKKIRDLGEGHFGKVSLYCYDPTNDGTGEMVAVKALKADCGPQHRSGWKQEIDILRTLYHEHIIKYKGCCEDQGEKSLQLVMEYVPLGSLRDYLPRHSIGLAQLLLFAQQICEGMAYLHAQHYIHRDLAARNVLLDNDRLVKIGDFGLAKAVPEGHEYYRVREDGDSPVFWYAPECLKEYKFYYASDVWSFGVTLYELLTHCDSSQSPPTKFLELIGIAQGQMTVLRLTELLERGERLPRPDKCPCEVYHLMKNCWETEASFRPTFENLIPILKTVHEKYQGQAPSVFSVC
# [20] = molecular target: T1, Recombinant Human STAT3 protein (SH2 domain) (Homo sapiens, UniProt P40763); assay: Fluorescence Polarization (FP) competition assay, STAT3 / GpYLPQTV-NH2 peptide; format: binding
# T1 construct: purchased Abcam ab43618
# T1 sequence (P40763 whole entry, the tested form may be a part): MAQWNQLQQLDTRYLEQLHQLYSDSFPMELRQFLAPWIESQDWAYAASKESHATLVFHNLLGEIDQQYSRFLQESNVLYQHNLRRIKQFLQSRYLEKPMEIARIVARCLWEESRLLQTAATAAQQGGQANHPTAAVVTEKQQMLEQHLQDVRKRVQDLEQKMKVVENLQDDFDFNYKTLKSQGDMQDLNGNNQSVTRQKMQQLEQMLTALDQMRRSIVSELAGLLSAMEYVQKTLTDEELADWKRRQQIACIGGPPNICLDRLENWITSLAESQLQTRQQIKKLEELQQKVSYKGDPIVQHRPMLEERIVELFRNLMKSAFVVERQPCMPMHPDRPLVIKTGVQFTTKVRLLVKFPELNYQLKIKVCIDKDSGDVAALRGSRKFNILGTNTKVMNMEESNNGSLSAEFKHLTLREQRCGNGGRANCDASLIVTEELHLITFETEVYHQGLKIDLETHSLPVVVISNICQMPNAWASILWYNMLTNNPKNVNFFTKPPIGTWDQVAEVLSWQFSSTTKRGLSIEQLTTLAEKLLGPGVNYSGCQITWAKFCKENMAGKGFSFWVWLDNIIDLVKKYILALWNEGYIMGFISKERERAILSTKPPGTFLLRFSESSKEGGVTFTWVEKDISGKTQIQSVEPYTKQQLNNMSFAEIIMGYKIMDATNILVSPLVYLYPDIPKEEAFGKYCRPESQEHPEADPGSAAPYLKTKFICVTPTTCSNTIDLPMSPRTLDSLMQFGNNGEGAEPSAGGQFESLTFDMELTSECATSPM
# Procedure: The FP assay was conducted as described by Zhao et al. (J Biol Chem. 2010; 285: 35855-65). The labeled phosphopeptide, 5-FLU-G(P-TYR)LPQTV-NH2 was synthesized by ProImmune (London, UK) with over 95% purity as probe. The Recombinant Human STAT3 protein was purchased from Abcam (ab43618). For saturation curves, various concentration of peptide probe (0-100 nM) and STAT3 protein ([…]) were incubated for 30 min at RT in the buffer (50 mm NaCl, 10 mm HEPES, 1 mm EDTA, 0.1% Nonidet P-40). To obtain the inhibitory effect, drugs (0-1000 μM) and 150 nM human STAT3 were incubated at 37° C. for 1 hour prior to co-incubation with 10 nM of labeled LPQTV peptide at RT for 30 min. […] The fluorescence polarization was then analyzed by the BioTek Synergy™ Neo2 Multi-Mode Microplate Reader (BioTek Instruments, Winooski, Vt., USA). Ki=IC50/(([L])/Kd)+1).
# Strategies to target STAT3 SH2 have been pursued recently. These small molecule inhibitors are designed to bind to a site resident in the STAT3 SH2 domain by competing with the p-Tyr705.
# As STAT3 may be recruited to gp130 within phosphotyrosine residues, the competitive FP assay was utilized to identify whether 323-1 and 323-2 target STAT3 SH2 domain.
# The control was set as 1% DMSO. Data are representative of 2 independent experiments.
# [21] = 10 nM peptide, 150 nM human STAT3 (FIG. 20), read-out: Ki, disruption of binding of STAT3 to phosphotyrosine peptide GpYLPQTV
# [22] = background (autofluorescence) subtracted (FIG. 33), read-out: Ki, protein-ligand interaction after background subtraction
smiles,measurement,setting,value
"C[C@@H]1CCC(c2cc3c4c(cncc4c2)[C@H](C)C3)=C1C=O [323-1, (15R,2R)-Delavatine A]",IC50,[1],4.26 µM
same,IC50,[2],6.22 µM
same,IC50,[3],6.13 µM
same,IC50,[4],2.01 µM
same,IC50,[5],> 20 µM
same,IC50,[6],> 20 µM
same,IC50,[7],> 20 µM
same,IC50,[8],> 20 µM
same,IC50,[9],> 20 µM
same,IC50,[10],> 20 µM
same,IC50,[11],> 20 µM
same,IC50,[12],> 20 µM
same,IC50,[13],> 20 µM
same,IC50,[14],> 20 µM
same,IC50,[15],> 20 µM
same,IC50,[16],> 20 µM
same,IC50,[17],> 20 µM
same,IC50,[18],> 20 µM
same,IC50,[19],> 20 µM
same,Ki,[20]; [21],~94 µM
same,Ki,[20]; [22],94 µM
"C[C@@H]1CCC(c2cc3c4c(cncc4c2)[C@@H](C)C3)=C1C=O [323-2, (15S,2R)-Delavatine A]",IC50,[1],11.6 µM
same,IC50,[2],5.25 µM
same,IC50,[3],7.52 µM
same,IC50,[4],1.22 µM
same,IC50,[5],> 20 µM
same,IC50,[6],> 20 µM
same,IC50,[7],> 20 µM
same,IC50,[8],> 20 µM
same,IC50,[9],> 20 µM
same,IC50,[10],> 20 µM
same,IC50,[11],> 20 µM
same,IC50,[12],> 20 µM
same,IC50,[13],> 20 µM
same,IC50,[14],> 20 µM
same,IC50,[15],> 20 µM
same,IC50,[16],> 20 µM
same,IC50,[17],> 20 µM
same,IC50,[18],> 20 µM
same,IC50,[19],> 20 µM
same,Ki,[20]; [21],~75 µM
same,Ki,[20]; [22],75 µM
same,Potency to disrupt STAT3/GpYLPQTV relative to S3I-201,[20]; higher than S3I-201,around 5 fold
